20 compounds from patent publication EP4786465A1, “NOVEL COMPOUND, AND PHARMACEUTICAL COMPOSITION FOR PREVENTION OR TREATMENT OF CANCER OR TUMORS COMPRISING SAME” (Daewoong Pharmaceutical Co., Ltd., priority 2023, dated 2025) can be followed below.

Holding throughout (format): cell-based
One assay concerns NCI-H226. The assay is described as follows: Cell growth inhibition test (CellTiter-Glo Luminescent Cell Viability), NCI-H226. To be noted: Homo sapiens. As for the experimental part: (§1) The cell growth for the compounds prepared in Examples was measured by CellTiter-Glo® Luminescednt Cell Viability (Promega, Catalog #G7571) method using NCI-H226 (addexbio), NCI-H28 (Korea Cell Line Bank) cell lines. This evaluation method is a method in which when luciferase enzyme is activated by ATP flowing out from living cells, it reacts with a luciferin substrate, and the enzyme activity at this time is measured to confirm cell viability.
(§2) Specifically, NCI-H226, and NCI-H28 cells were prepared in 100 µL of cell culture medium (RPMI medium, 10% FBS, 1% P/S, 4.5 g/L D-Glucose, 2.383 g/L HEPES Buffer, L-Glutamine, 1.5 g/L Sodium Bicarbonate, 110 mg/L Sodium pyruvate) in a white clear bottom 96-well microplate. The prepared plate was incubated in a 5% CO2 incubator at 37°C for 24 hours, and then the previously prepared compounds of Examples were finally treated at concentrations of 0.0005, 0.005, 0.05, 0.5 and 5 µM, which was repeated three times for all treatment solutions. The plates treated with the compounds of Examples were incubated in a 5% CO2 incubator at 37°C. 100 µL/well of the substrate aqueous solution containing luciferin was added to a white clear-bottom 96 well microplate, thereby initiating an enzyme reaction. The reaction was performed at room temperature in the dark for 10 minutes, and the luminescence was measured using a Flexstation3 multi-mode microplate reader. In accordance with the instructions for the CellTiter-Glo™ Luminescednt Cell Viability, the luciferase enzyme activity, which represents the amount of ATP, was measured by a chemiluminescence method, and the inhibitory activity of the compounds according to the present disclosure was calculated. The results of each compound were analyzed using Microsoft Excel, and the IC50 values were calculated using GraphPad Prism software.

The next assay concerns NCI-H28. The assay is described as follows: Cell growth inhibition test (CellTiter-Glo Luminescent Cell Viability), NCI-H28. To be noted: Homo sapiens. The protocol: as §1, §2
Assay [1] has as its system transcription factor TEAD. The assay can be described thus: Activity inhibition test of transcription factor TEAD (ONE-Glo Luciferase assay, Hippo Pathway TEAD reporter-MCF7 recombinant cell line). To be noted: Homo sapiens; TEAD Reporter-MCF7 cells, 24 hours treatment, luciferase luminescence. The protocol:
The transcription factor TEAD activity of the compounds prepared in the Examples was measured by the ONE-Glo™ Luciferase assay (Promega, Catalog #E6110) method using the Hippo Pathway TEAD reporter-MCF7 recombinant cell line (BPS Bioscience, Catalog #60618). Specifically, the TEAD Reporter-MCF7 cell line contains the firefly luciferase gene whose expression is regulated under the control of TEAD response elements in the MCF7, which is a human breast cancer cell line. In the cell line, a non-phosphorylated YAP/TAZ exists in the nucleus in a non-stressed condition, which continuously induces expression of the luciferase reporter. TEAD Reporter-MCF7 cells were prepared in 100 µL of cell culture medium (MEM medium, 10% FBS, 1% P/S, 400 µg/mL Geneticin, 1% […], 1 mM NA pyruvate, 10 µg/mL Insulin) in a white clear bottom 96-well microplate. The prepared plate was incubated in a 5% CO2 incubator at 37°C for 24 hours, and then the previously prepared compounds of Examples were finally treated at concentrations of 0.0005, 0.005, 0.05, 0.5 and 5 µM, which were repeated three times for all treatment solutions. The plates treated with the compounds of Examples were incubated in a 5% CO2 incubator at 37°C for 24 hours. 100 µL/well of the substrate aqueous solution containing luciferin was added to a white clear-bottom 96 well microplate, thereby initiating an enzyme reaction. The reaction was performed at room temperature for 5 minutes, and the luminescence (integration time 1000 ms) was measured using a Flexstation3 multi-mode microplate reader. In accordance with the instructions for the ONE-Glo™ Luciferase Assay, the luciferase enzyme activity, which represents the activity of the transcription factor TEAD, was measured by a chemiluminescence method, and the inhibitory activity of the compound according to the present disclosure was calculated. The results of each compound were analyzed using Microsoft Excel, and the IC50 values were calculated by GraphPad Prism software.

Where [2] appears, read: NCI-H226 cells, CellTiter-Glo, read-out: growth IC50 H226.
[3] abbreviates: NCI-H28 cells, CellTiter-Glo, read-out: growth IC50 H28.

Where two headings read alike, the source gives them in different places. Some results are limits rather than exact numbers.

`C=CC(=O)N1Cc2cc(Nc3ccc(C(F)(F)F)cc3)c(-c3cn(C)cn3)cc2C1` [Example 1, 1-(5-(1-methyl-1H-imidazol4-yl)-6-((4-(trifluoromethyl)phenyl)amino)isoindolin-2-yl)prop-2-en-1-one]: the IC50 stood at 21.2 nM in the assay with NCI-H226 (setting [2]), 3000 nM in the assay on NCI-H28 (setting [3]) and 42.7 nM in assay [1].
With `CNS(=O)(=O)N1Cc2cc(Nc3ccc(C(F)(F)F)cc3)c(-c3cn(C)cn3)cc2C1` [Example 2, N-methyl-5-(1-methyl-1H-imidazol-4-yl)-6-((4-(trifluoromethyl)phenyl)amino)isoindoline-2-sulfonamide], the IC50 is 89.8 nM in the assay with NCI-H226 (setting [2]), 5200 nM with NCI-H28 (setting [3]) and 1460 nM in assay [1].
The corresponding values for `C=CC(=O)N1CCc2c(ccc(Nc3ccc(C(F)(F)F)cc3)c2-c2cn(C)cn2)C1` [Example 3, 1-(5-(1-methyl-1H-imidazol-4-yl)-6-((4-(trifluoromethyl)phenyl)amino)-3,4-dihydroisoquinolin-2(1H)-yl)prop-2-en-1-one] are 9.8 nM, 951 nM and 25.5 nM.
With `CNS(=O)(=O)N1CCc2c(ccc(Nc3ccc(C(F)(F)F)cc3)c2-c2cn(C)cn2)C1` [Example 4, N-methyl-5-(1-methyl-1H-imidazol-4-yl)-6-((4-(trifluoromethyl)phenyl)amino)-3,4-dihydroisoquinoline-2(1H)-sulfonamide], the figures for the IC50 (in the assay on NCI-H226 (setting [2]); in the assay with NCI-H28 (setting [3]); in assay [1]) were 1350 nM, 10000 nM and 4840 nM, respectively.
Take `C=CC(=O)N1Cc2ccc(Nc3ccc(C(F)(F)F)cc3)c(-c3cn(C)cn3)c2C1` [Example 5, 1-(4-(1-methyl-1H-imidazol-4-yl)-5-((4-(trifluoromethyl)phenyl)amino)isoindolin-2-yl)prop-2-en-1-one]: the IC50 in the assay on NCI-H226 (setting [2]) was 119 nM; in the assay with NCI-H28 (setting [3]) it was 2000 nM; in assay [1] it was 602 nM.
As for `CNS(=O)(=O)N1Cc2ccc(Nc3ccc(C(F)(F)F)cc3)c(-c3cn(C)cn3)c2C1` [Example 6, N-methyl-4-(1-methyl-1H-imidazol-4-yl)-5-((4-(trifluoromethyl)phenyl)amino)isoindoline-2-sulfonamide], the values for the half-maximal inhibitory concentration (IC50) (in the assay on NCI-H226 (setting [2]); with NCI-H28 (setting [3]); in assay [1]) were 923 nM, 6600 nM and 1560 nM, respectively.
Consider `C=CC(=O)N1CCc2c(ccc(Nc3ccc(C(F)(F)F)cc3)c2-c2cn3c(n2)CCC3)C1` [Example 7, 1-(5-(6,7-dihydro-5H-pyrrolo[1,2-a]imidazol-2-yl)-6-((4-(trifluoromethyl)phenyl)amino)-3,4-dihydroisoquinolin-2(1H)-yl)prop-2-en-1-one], for which the IC50 in the assay with NCI-H226 (setting [2]) was 37.8 nM; in the assay with NCI-H28 (setting [3]), 2180 nM; in assay [1] it was 14.3 nM.
With `Cn1cnc(-c2cc3c(cc2Nc2ccc(C(F)(F)F)cc2)CN(CC#N)C3)c1` [Example 8, 2-(5-(1-methyl-1H-imidazol-4-yl)-6-((4-(trifluoromethyl)phenyl)amino)isoindolin-2-yl)acetonitrile], the concentration for half-maximal inhibition (IC50) worked out at 1530 nM in the assay on NCI-H226 (NCI-H226, read-out: growth IC50 H226); 10000 nM with NCI-H28 (NCI-H28, read-out: growth IC50 H28); 9350 nM in assay [1].
In the case of `C=CC(=O)N1CCc2c(ccc(Nc3ccc(C(F)(F)F)c(F)c3)c2-c2cn(C)cn2)C1` [Example 9, 1-(6-((3-fluoro-4-(trifluoromethyl)phenyl)amino)-5-(1-methyl-1H-imidazol-4-yl)-3,4-dihydroisoquinolin-2(1H)-yl)prop-2-en-1-one], the IC50 is 36 nM in the assay on NCI-H226 (setting [2]), 778 nM with NCI-H28 (setting [3]) and 34.2 nM in assay [1].
In the case of `C=CC(=O)N1CCc2c(ccc(Nc3ccc(F)cc3)c2-c2cn(C)cn2)C1` [Example 10, 1-(6-((4-fluorophenyl)amino)-5-(1-methyl-1H-imidazol-4-yl)-3,4-dihydroisoquinolin-2(1H)-yl)prop-2-en-1-one], the results for the IC50 (in the assay on NCI-H226 (setting [2]); in the assay with NCI-H28 (setting [3]); in assay [1]) were 100 nM, 1500 nM and 49.6 nM, respectively.
For `C=CC(=O)N1Cc2cc(Nc3ccc(F)cc3)c(-c3cn(C)cn3)cc2C1` [Example 11, 1-(5-((4-fluorophenyl)amino)-6-(1-methyl-1H-imidazol-4-yl)isoindolin-2-yl)prop-2-en-1-one], the IC50 in assay [1] was determined as 1890 nM.
With `C=CC(=O)N1CCc2ccc(Nc3ccc(F)cc3)c(-c3cn(C)cn3)c2C1` [Example 12, 1-(7-((4-fluorophenyl)amino)-8-(1-methyl-1H-imidazol-4-yl)-3,4-dihydroisoquinolin-2(1H)-yl)prop-2-en-1-one], the IC50 in assay [1] was above 10000 nM.
As to `C=CC(=O)N1CCc2c(ccc(Nc3cc(F)cc(F)c3)c2-c2cn(C)cn2)C1` [Example 13, 1-(6-((3,5-difluorophenyl)amino)-5-(1-methyl-1H-imidazol-4-yl)-3,4-dihydroisoquinolin-2(1H)-yl)prop-2-en-1-one], the IC50 worked out at 55.3 nM in the assay with NCI-H226 (setting [2]), 2000 nM in the assay with NCI-H28 (setting [3]) and 28 nM in assay [1].
Turning to `C=CC(=O)N1CCc2c(ccc(Nc3cc(F)c(F)c(F)c3)c2-c2cn(C)cn2)C1` [Example 14, 1-(5-(1-methyl-1H-imidazol-4-yl)-6-((3,4,5-trifluorophenyl)amino)-3,4-dihydroisoquinolin-2(1H)-yl)prop-2-en-1-one], the results for the IC50 (in the assay on NCI-H226 (setting [2]); in the assay on NCI-H28 (setting [3]); in assay [1]) were 16.6 nM, 1800 nM and 6.78 nM, respectively.
For `C=CC(=O)N1CCc2c(ccc(Nc3ccc(Cl)cc3)c2-c2cn(C)cn2)C1` [Example 15, 1-(6-((4-chlorophenyl)amino)-5-(1-methyl-1H-imidazol-4-yl)-3,4-dihydroisoquinolin-2(1H)-yl)prop-2-en-1-one], the results for the IC50 (in the assay on NCI-H226 (setting [2]); in the assay on NCI-H28 (setting [3]); in assay [1]) were 30.9 nM, 2400 nM and 5.9 nM, respectively.
`C=CC(=O)N1CCc2c(ccc(Nc3ccc(Br)cc3)c2-c2cn(C)cn2)C1` [Example 16, 1-(6-((4-bromophenyl)amino)-5-(1-methyl-1H-imidazol-4-yl)-3,4-dihydroisoquinolin-2(1H)-yl)prop-2-en-1-one]: the IC50 with NCI-H226 (setting [2]) worked out at 35.2 nM; in the assay on NCI-H28 (setting [3]), 636 nM; in assay [1], 8.1 nM.
`C=CC(=O)N1Cc2cc(Nc3cc(F)c(F)c(F)c3)c(-c3cn(C)cn3)cc2C1` [Example 18, 1-(5-(1-methyl-1H-imidazol-4-yl)-6-((3,4,5-trifluorophenyl)amino)isoindolin-2-yl)prop-2-en-1-one]: the IC50 in assay [1] came to 239 nM.
Turning to `C=CC(=O)N1Cc2cc(Nc3ccc(Cl)cc3)c(-c3cn(C)cn3)cc2C1` [Example 19, 1-(5-((4-chlorophenyl)amino)-6-(1-methyl-1H-imidazol-4-yl)isoindolin-2-yl)prop-2-en-1-one], in assay [1], the IC50 was 118 nM.
The same measure, in the same setting: then `C=CC(=O)N1CCc2c(ccc(Nc3cc(Cl)cc(C(F)(F)F)c3)c2-c2cn(C)cn2)C1` [Example 22, 1-(6-((3-chloro-5-(trifluoromethyl)phenyl)amino)-5-(1-methyl-1H-imidazol-4-yl)-3,4-dihydroisoquinolin-2(1H)-yl)prop-2-en-1-one], with 242 nM.
Regarding `C=CC(=O)N1CCc2c(ccc(Nc3cc(C(F)(F)F)cc(C(F)(F)F)c3)c2-c2cn(C)cn2)C1` [Example 23, 1-(6-((3,5-bis(trifluoromethyl)phenyl)amino)-5-(1-methyl-1H-imidazol-4-yl)-3,4-dihydroisoquinolin-2(1H)-yl)prop-2-en-1-one], the IC50 in assay [1] is above 5000 nM.
